Where “and” joins values, the source holds several entries; their conditions need not be identical. Identical values can stand only once. Inconclusive results and toxic doses are left out. Rule as the data show it: active = T/C of 150% or more; inactive = T/C below 125%.
System: L1210 leukemia ip in BDF1 mice, survival T/C
Assay: NCI In Vivo Anticancer Drug Screen. Data for tumor model L1210 Leukemia (intraperitoneal) in B6D2F1 (BDF1) mice
Settings: endpoint: mean survival time, higher = longer survival
Summary of the method: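 Ratio derived from survival: compound-dosed mice over vehicle-dosed mice, all bearing a transplantable tumor.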

[1] = dose: 100.0 mg/kg/injection, schedule: Q01DX001 (ip), vehicle: saline
[2] = dose: 200.0 mg/kg/injection, schedule: Q01DX001 (ip), vehicle: saline
[3] = dose: 100.0 mg/kg/injection, schedule: Q04DX003 (ip), vehicle: Klucel (hydroxypropylcellulose) (HPC)
[4] = dose: 200.0 mg/kg/injection, schedule: Q04DX003 (ip), vehicle: Klucel (hydroxypropylcellulose) (HPC)
[5] = dose: 100.0 mg/kg/injection, schedule: Q04DX003 (ip), vehicle: saline with Tween-80
[6] = dose: 200.0 mg/kg/injection, schedule: Q04DX003 (ip), vehicle: saline with Tween-80
[7] = dose: 400.0 mg/kg/injection, schedule: Q04DX003 (ip), vehicle: saline with Tween-80
[8] = dose: 100.0 mg/kg/injection, schedule: Q01DX009 (ip), vehicle: Klucel (hydroxypropylcellulose) (HPC)
[9] = dose: 200.0 mg/kg/injection, schedule: Q01DX009 (ip), vehicle: Klucel (hydroxypropylcellulose) (HPC)
[10] = dose: 100.0 mg/kg/injection, schedule: Q01DX009 (ip), vehicle: saline with Tween-80
[11] = dose: 200.0 mg/kg/injection, schedule: Q01DX009 (ip), vehicle: saline with Tween-80
[12] = dose: 400.0 mg/kg/injection, schedule: Q01DX009 (ip), vehicle: saline with Tween-80
[13] = dose: 100.0 mg/kg/injection, schedule: Q01DX001 (ip), vehicle: Klucel (hydroxypropylcellulose) (HPC)
[14] = dose: 200.0 mg/kg/injection, schedule: Q01DX001 (ip), vehicle: Klucel (hydroxypropylcellulose) (HPC)
[15] = dose: 50.0 mg/kg/injection, schedule: Q01DX001 (ip), vehicle: saline
[16] = dose: 400.0 mg/kg/injection, schedule: Q01DX001 (ip), vehicle: saline
[17] = dose: 400.0 mg/kg/injection, schedule: Q01DX001 (ip), vehicle: Klucel (hydroxypropylcellulose) (HPC)

Measured: T/C

N=C(N)SCc1ccc([N+](=O)[O-])cc1
inactive: [1] 103 % of control | [2] 97 % of control

N#CCc1ccc2c(c1)[nH]c1ccccc12
inactive: [3] 100 % of control | [4] 100 % of control | dose: 400.0 mg/kg/injection, schedule: Q04DX003 (ip), vehicle: Klucel (hydroxypropylcellulose) (HPC) 105 % of control

OC1C2CC3C(C2)C13 (centres undefined)
inactive: dose: 100.0 mg/kg/injection, schedule: Q01DX009 (ip), vehicle: saline 102 % of control | dose: 200.0 mg/kg/injection, schedule: Q01DX009 (ip), vehicle: saline 96 % of control | dose: 400.0 mg/kg/injection, schedule: Q01DX009 (ip), vehicle: saline 98 % of control

NC(=O)c1ccc(Cl)c(Cl)c1
inactive: [5] 97 % of control | [6] 95 % of control | [7] 91 % of control

Cc1ccc(NC(=S)N(CCC#N)C2CCCCC2)cc1
inactive: [8] 101 % of control | [9] 104 % of control | dose: 400.0 mg/kg/injection, schedule: Q01DX009 (ip), vehicle: Klucel (hydroxypropylcellulose) (HPC) 101 % of control

c1ccc(CSc2ncnc3nncnc23)cc1
inactive: dose: 5.0 mg/kg/injection, schedule: Q01DX001 (ip), vehicle: other 104 % of control | dose: 10.0 mg/kg/injection, schedule: Q01DX001 (ip), vehicle: other 95 % of control | dose: 20.0 mg/kg/injection, schedule: Q01DX001 (ip), vehicle: other 110 % of control | dose: 40.0 mg/kg/injection, schedule: Q01DX001 (ip), vehicle: other 101 % of control | dose: 80.0 mg/kg/injection, schedule: Q01DX001 (ip), vehicle: other 98 % of control | dose: 100.0 mg/kg/injection, schedule: Q01DX001 (ip), vehicle: other 89 % of control | dose: 200.0 mg/kg/injection, schedule: Q01DX001 (ip), vehicle: other 101 % of control

COc1ccc(Cl)cc1NC(=O)COc1ccccc1
inactive: dose: 100.0 mg/kg/injection, schedule: Q01DX001 (ip), vehicle: saline with Tween-80 89 % of control | [10] 102 % of control | dose: 100.0 mg/kg/injection, schedule: Q04DX002 (ip), vehicle: saline with Tween-80 97 % of control and 98 % of control | dose: 200.0 mg/kg/injection, schedule: Q01DX001 (ip), vehicle: saline with Tween-80 92 % of control | [11] 98 % of control and 102 % of control | dose: 200.0 mg/kg/injection, schedule: Q04DX002 (ip), vehicle: saline with Tween-80 94 % of control and 97 % of control | dose: 400.0 mg/kg/injection, schedule: Q01DX001 (ip), vehicle: saline with Tween-80 101 % of control | [12] 93 % of control and 102 % of control | dose: 400.0 mg/kg/injection, schedule: Q04DX002 (ip), vehicle: saline with Tween-80 94 % of control and 101 % of control

CN(C1=CC(=O)C(=O)c2ccccc21)c1ccccc1
inactive: dose: 50.0 mg/kg/injection, schedule: Q01DX001 (ip), vehicle: Klucel (hydroxypropylcellulose) (HPC) 95 % of control | [13] 97 % of control | [14] 97 % of control

CC(C)(O)/C=C/C(=O)[C@](C)(O)[C@H]1[C@H](O)C[C@@]2(C)[C@@H]3CC=C4[C@@H](C[C@H](O)C(=O)C4(C)C)[C@]3(C)C(=O)C[C@]12C
inactive: dose: 0.5 mg/kg/injection, schedule: Q01DX001 (sc), vehicle: steriod suspending solution 102 % of control | dose: 1.0 mg/kg/injection, schedule: Q01DX001 (sc), vehicle: steriod suspending solution 98 % of control

CCC1=CC(=O)CCC1
inactive: [15] 96 % of control | [1] 100 % of control | [2] 102 % of control | [16] 108 % of control

C[CH2][Pb]([CH2]C)([CH2]C)[O]C(=O)C=C1CCCC1
inactive: dose: 2.5 mg/kg/injection, schedule: Q01DX009 (ip), vehicle: saline with Tween-80 101 % of control

CCC1C(CC(=O)O)=C(C)NC(C)=C1CC(=O)O
inactive: [8] 109 % of control | [9] 90 % of control

NC(=O)c1cc(Cl)cc(Cl)c1N
inactive: [13] 100 % of control | [14] 107 % of control | [17] 111 % of control

O=C1C=C(NNc2ccccc2)CCC1
inactive: dose: 75.0 mg/kg/injection, schedule: Q01DX001 (ip), vehicle: steriod suspending solution 92 % of control | dose: 150.0 mg/kg/injection, schedule: Q01DX001 (ip), vehicle: steriod suspending solution 95 % of control | dose: 300.0 mg/kg/injection, schedule: Q01DX001 (ip), vehicle: steriod suspending solution 92 % of control

CCOC(=O)CNC(=O)C(CSSCC(NC(=O)OCc1ccccc1)C(=O)NCC(=O)OCC)NC(=O)OCc1ccccc1 (centres undefined)
inactive: dose: 25.0 mg/kg/injection, schedule: Q04DX003 (ip), vehicle: Klucel (hydroxypropylcellulose) (HPC) 95 % of control | dose: 50.0 mg/kg/injection, schedule: Q01DX009 (ip), vehicle: Klucel (hydroxypropylcellulose) (HPC) 100 % of control | dose: 50.0 mg/kg/injection, schedule: Q04DX003 (ip), vehicle: Klucel (hydroxypropylcellulose) (HPC) 104 % of control | [8] 103 % of control | [3] 104 % of control and 90 % of control | [9] 92 % of control

c1ccc(CCC[P+](c2ccccc2)(c2ccccc2)c2ccccc2)cc1
inactive: dose: 2.5 mg/kg/injection, schedule: Q01DX009 (ip), vehicle: saline 113 % of control | dose: 5.0 mg/kg/injection, schedule: Q01DX001 (ip), vehicle: saline 101 % of control | dose: 5.0 mg/kg/injection, schedule: Q01DX009 (ip), vehicle: saline 118 % of control | dose: 10.0 mg/kg/injection, schedule: Q01DX001 (ip), vehicle: saline 95 % of control | dose: 10.0 mg/kg/injection, schedule: Q01DX009 (ip), vehicle: saline 102 % of control | dose: 20.0 mg/kg/injection, schedule: Q01DX001 (ip), vehicle: saline 117 % of control | dose: 40.0 mg/kg/injection, schedule: Q01DX001 (ip), vehicle: saline 117 % of control

C/C(CCC(=O)O)=N/Nc1nnc(N/N=C(/C)CCC(=O)O)c2ccccc12
inactive: [15] 102 % of control | [1] 102 % of control | [2] 102 % of control | [16] 120 % of control

O=c1[nH]nc(-c2ccc(C(F)(F)F)cc2)s1
inactive: dose: 75.0 mg/kg/injection, schedule: Q01DX001 (ip), vehicle: saline 95 % of control | dose: 75.0 mg/kg/injection, schedule: Q04DX003 (ip), vehicle: saline 93 % of control | dose: 150.0 mg/kg/injection, schedule: Q01DX001 (ip), vehicle: saline 104 % of control | dose: 150.0 mg/kg/injection, schedule: Q04DX003 (ip), vehicle: saline 98 % of control | dose: 300.0 mg/kg/injection, schedule: Q01DX001 (ip), vehicle: saline 97 % of control | dose: 300.0 mg/kg/injection, schedule: Q04DX003 (ip), vehicle: saline 98 % of control

COc1ccc(OC(=O)CCCl)cc1
inactive: dose: 50.0 mg/kg/injection, schedule: Q01DX009 (ip), vehicle: saline with Tween-80 98 % of control | dose: 50.0 mg/kg/injection, schedule: Q04DX003 (ip), vehicle: saline with Tween-80 104 % of control | [10] 104 % of control | [5] 95 % of control | [11] 105 % of control | [6] 95 % of control | [12] 121 % of control | [7] 104 % of control

ClCC1=NCCN1
inactive: dose: 12.5 mg/kg/injection, schedule: Q04DX002 (ip), vehicle: Klucel (hydroxypropylcellulose) (HPC) 97 % of control | dose: 25.0 mg/kg/injection, schedule: Q04DX002 (ip), vehicle: Klucel (hydroxypropylcellulose) (HPC) 97 % of control | dose: 50.0 mg/kg/injection, schedule: Q04DX002 (ip), vehicle: Klucel (hydroxypropylcellulose) (HPC) 97 % of control

CN1CCN(C(=O)Nc2ccc(N=Nc3ccccc3)cc2)CC1
inactive: [4] 87 % of control

CC(=O)[O][Hg][c]1cc(-c2ccc(N=Nc3c(S(=O)(=O)O)cc4cccc(N)c4c3O)cc2)ccc1N=Nc1c(S(=O)(=O)O)cc2cccc(N)c2c1O
inactive: dose: 3.13 mg/kg/injection, schedule: Q01DX009 (ip), vehicle: saline with Tween-80 86 % of control | dose: 6.25 mg/kg/injection, schedule: Q01DX009 (ip), vehicle: saline with Tween-80 86 % of control | dose: 12.5 mg/kg/injection, schedule: Q01DX009 (ip), vehicle: saline with Tween-80 92 % of control

OC(c1ccccc1)C1(N2CCCCC2)CCCCC1 (centres undefined)
inactive: [13] 94 % of control | [14] 100 % of control | [17] 96 % of control

From PubChem BioAssay AID248 (DTP/NCI, 2004)
